The values below come from patent US8748626B2, “Oxazole and thiazole compounds as KSP inhibitors” (Novartis AG, priority 2010, dated 2014).

The IC50 is the concentration at which inhibition is half-maximal. One may read the GI50 as the concentration giving 50% growth inhibition.

Test [1] concerns the target motor domain of human KSP (Eg 5, KNSL1) (Homo sapiens (Human), UniProt P52732). The test can be described thus: Assay for determining KSP activity (microtubule-stimulated ATPase, Biomol Green). In kind it is biochemical. To be noted: KSP motor domain 45 nM, microtubules 35 μg/mL, ATP, 1 hour RT, absorbance 630 nm; read-out: Biological Activity IC50. The text has this:
This example provides a representative in vitro assay for determining KSP activity in vitro. Purified microtubules obtained from bovine brain were purchased from Cytoskeleton Inc. (Denver, Colo., USA). The motor domain of human KSP (Eg 5, KNSL1) was cloned, expressed, and purified to greater than 95% homogeneity. Biomol Green was purchased from Affinity Research Products Ltd. (Matford Court, Exeter, Devon, United Kingdom). Microtubules and KSP motor protein (i.e., the KSP motor domain) were diluted in assay buffer (20 mM Tris-HCl (pH 7.5), 1 mM MgCl2, 10 mM DTT and 0.25 mg/mL BSA) to a final concentration of 35 μg/mL microtubules and 45 nM KSP. The microtubule/KSP mixture was then pre-incubated at 37° C. for 10 min to promote the binding of KSP to microtubules.
To each well of the testing plate (384-well plate) containing 1.25 μL of inhibitor or test compound in DMSO (or DMSO only in the case of controls) were added 25 μL of ATP solution (ATP diluted to a concentration of 300 μM in assay buffer) and 25 μL of the above-described microtubule/KSP solution. The plates were incubated at RT for 1 hour. Following incubation, 65 μL of Biomol Green (a malachite green-based dye that detects the release of inorganic phosphate) was added to each well. The plates were incubated for an additional 5-10 minutes then the absorbance at 630 nm was determined using a Victor II plate reader. The amount of absorbance at 630 nm corresponded to the amount of KSP activity in the samples. The IC50 of each inhibitor or test compound was then determined based on the decrease in absorbance at 630 nm at each concentration, via nonlinear regression using either XLFit for Excel or Prism data analysis software by GraphPad Software Inc.

Test [2] relates to tumor cell lines. The test can be described thus: Inhibition of cellular proliferation in tumor cell lines (CellTiter-Glo). In kind it is cell-based. The settings on record: 50% growth inhibition at 72 hours of continuous compound exposure; cell line not specified; read-out: Biological Activity GI50. As to the method:
Cells are plated in 96-well plates at densities of about 500 cells per well of a 96-well plate and are allowed to grow for 24 hours. The cells are then treated with various concentrations of compounds for 72 hours. Then, 100 μl of CellTiter-Glo® solution are added. The CellTiter-Glo® assay measures the amount of ATP present in the well after lysing the cells; the ATP released is used in an enzymatic reaction including the enzyme Luciferease and its substrate Luciferin. The amount of light emitted is proportional to the amount of ATP, which in turn is proportional to the number of live cells in the well. (see Promega product catalog #G7573, CellTiter-Glo® Luminescent Cell Viability Assay). The cells are then incubated in the dark for 30 minutes. The amount of luminescence is determined for each well using a Wallac Trilux plate reader, which correlates with the number of cells per well. The number of viable cells in the wells that receive only DMSO (0.5%) serve as an indication of 0°/a inhibition, while wells without cells serve as 100% inhibition of cell growth. The compound concentration that results in a 50% growth inhibition (GI50) is determined graphically from sigmoidal dose-response curves of log-transformed dose values versus cell counts (percent of control) at 72 hours of continuous compound exposure.
The cell lines used are listed below.
The cell proliferation assay is performed as described above. • Cancer Cell Lines • Colo 205—colon carcinoma • RPMI 1640+10% FBS+1% L-glutamine+1% P/S+1% NaPyr.+Hepes+4.5 g/L Glucose+1% NaBicarb. • MDA 435—breast cancer—high met • EMEM+10% FBS+1% P/S+1% L-Glutamine+1% NEAA+1% NaPyr+1% vitamins • HCT-15 and HCT116—colon carcinoma • RPMI 1640+10% FBS+1% L-glutamine+1% P/S • Drug Resistant Cell Lines • KB3.1—[…] epidermal carcinoma; parental cell line • Iscove's+10% FBS+1% L-glutamine+1% P/S • KBV1—p-glycoprotein associated multi-drug resistant cell line • RPMI 1640+10% FBS+1% L-glutamine+1% P/S+0.2 ug/mL Vinblastine • KB85—p-glycoprotein associated multi-drug resistant cell line • DMEM+10% FBS+1% L-glutamine+1% P/S+10 ng/mL Colchicine

Sequence of motor domain of human KSP (Eg 5, KNSL1) (P52732 18-359): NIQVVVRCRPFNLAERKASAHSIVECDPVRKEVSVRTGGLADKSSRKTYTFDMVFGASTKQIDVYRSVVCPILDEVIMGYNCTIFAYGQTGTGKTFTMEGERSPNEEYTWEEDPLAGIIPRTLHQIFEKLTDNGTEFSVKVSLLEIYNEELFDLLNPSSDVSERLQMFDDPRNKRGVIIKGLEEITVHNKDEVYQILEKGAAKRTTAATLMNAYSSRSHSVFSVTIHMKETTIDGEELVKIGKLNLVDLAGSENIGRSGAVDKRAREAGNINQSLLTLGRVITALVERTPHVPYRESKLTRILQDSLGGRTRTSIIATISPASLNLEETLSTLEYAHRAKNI

Take `C[C@H](O)C(=O)N(C[C@@H]1CNC[C@@H]1F)[C@@H](c1nc(-c2cc(F)ccc2F)sc1Cc1ccccc1)C(C)(C)C` [Example 1, (S)-N-((R)-1-(5-benzyl-2-(2,5-difluorophenyl)thiazol-4-yl)-2,2-dimethylpropyl)-N-(((3S,4R)-4-fluoropyrrolidin-3-yl)methyl)-2-hydroxypropanamide]: the IC50 in test [1] came to 0.84 nM. Besides, the GI50 in test [2] was determined as 0.18 nM. `CC(C)(C)[C@H](c1nc(-c2cc(F)ccc2F)sc1Cc1ccccc1)N(C[C@@H]1CNC[C@@H]1F)C(=O)[C@@H]1CCCO1` [Example 2, (S)-N-((R)-1-(5-benzyl-2-(2,5-difluorophenyl)thiazol-4-yl)-2,2-dimethylpropyl)-N-(((3S,4R)-4-fluoropyrrolidin-3-yl)methyl)tetrahydrofuran-2-carboxamide]: the IC50 in test [1] came out at 10 nM. Also, the GI50 in test [2] was 1.4 nM.

Take `C[C@H](O)C(=O)N(CC[C@H](N)CF)[C@@H](c1nc(-c2cc(F)ccc2F)sc1Cc1ccccc1)C(C)(C)C` [Example 3, (S)-N-((S)-3-amino-4-fluorobutyl)-N-((R)-1-(5-benzyl-2-(2,5-difluorophenyl)thiazol-4-yl)-2,2-dimethylpropyl)-2-hydroxypropanamide]: in test [1], the 50% inhibitory concentration (IC50) is 2.6 nM. Besides, the GI50 in test [2] was found to be 2.2 nM. On the same counts, the results for `C[C@H](O)C(=O)N(C[C@@H]1CNC[C@@H]1F)[C@@H](c1nc(-c2cc(F)ccc2F)oc1Cc1ccccc1)C(C)(C)C` [Example 4, (S)-N-((R)-1-(5-benzyl-2-(2,5-difluorophenyl)oxazol-4-yl)-2,2-dimethylpropyl)-N-(((3S,4R)-4-fluoropyrrolidin-3-yl)methyl)-2-hydroxypropanamide] are 7.18 nM and 3.5 nM. On the same counts, the results for `C[C@H](O)C(=O)N(CC[C@H](N)CF)[C@@H](c1nc(-c2cc(F)ccc2F)oc1Cc1ccccc1)C(C)(C)C` [Example 5, (S)-N-((S)-3-amino-4-fluorobutyl)-N-((R)-1-(5-benzyl-2-(2,5-difluorophenyl)oxazol-4-yl)-2,2-dimethylpropyl)-2-hydroxypropanamide] are 2.54 nM and 4.82 nM. On to `C[C@H](O)C(=O)N(C[C@@H]1CNC[C@@H]1F)[C@H](c1nc(-c2cc(F)ccc2F)oc1Cc1ccccc1)C(C)(C)C` [Example 6, (S)-N-((S)-1-(5-benzyl-2-(2,5-difluorophenyl)oxazol-4-yl)-2,2-dimethylpropyl)-N-(((3S,4R)-4-fluoropyrrolidin-3-yl)methyl)-2-hydroxypropanamide], for which, in test [1], the IC50 came out at 1000 nM.

As for `C[C@H](O)C(=O)N(CC[C@H](N)CF)[C@H](c1nc(-c2cc(F)ccc2F)oc1Cc1ccccc1)C(C)(C)C` [Example 7, (S)-N-((S)-3-amino-4-fluorobutyl)-N-((S)-1-(5-benzyl-2-(2,5-difluorophenyl)oxazol-4-yl)-2,2-dimethylpropyl)-2-hydroxypropanamide], in test [1], the 50% inhibitory concentration (IC50) stood at 631 nM.

In the case of `C[C@H](O)C(=O)N(CC[C@H](N)CF)[C@H](c1nc(-c2cc(F)ccc2F)sc1Cc1ccccc1)C(C)(C)C` [Example 8, (S)-N-((S)-3-amino-4-fluorobutyl)-N-((S)-1-(5-benzyl-2-(2,5-difluorophenyl)thiazol-4-yl)-2,2-dimethylpropyl)-2-hydroxypropanamide], the GI50 in test [2] was determined as 944 nM.
